Data on one molecule can be found in ChEMBL document CHEMBL3286253, “Design, synthesis, and structure-activity relationship studies of novel thioether pleuromutilin derivatives as potent antibacterial agents” (J Med Chem, 2014).

Data set [1] is described as follows: Aqueous solubility of the compound in water at pH 7.4. As to conditions: water.
Data set [2] is described as follows: Chemical stability of solid state of the compound assessed as compound remaining after 24 hrs by UV/HPLC analysis. The format is physicochemical. The settings on record: read-out: Stability.
Data set [3] in a line: Chemical stability of solid state of the compound assessed as compound remaining after 100 days by UV/HPLC analysis. The format is physicochemical. As to conditions: read-out: Stability.
Data set [4] is described as follows: Chemical stability of aqueous solution state of the compound assessed as compound remaining after 24 hrs by UV/HPLC analysis. The settings on record: read-out: Stability. The format is physicochemical.
Data set [5] is described as follows: Chemical stability of aqueous solution state of the compound assessed as compound remaining after 14 days by UV/HPLC analysis. The settings on record: read-out: Stability. The format is physicochemical.
The nature of data set [6]: Tmax in Sprague-Dawley rat at 10 mg/kg, iv. As to conditions: in vivo. On the set-up: dose 10 mg/kg, route intravenous. The format is ADME, organism-based.
Data set [7] is described as follows: AUC (0 to t) in Sprague-Dawley rat at 10 mg/kg, iv. The format is ADME, organism-based. On the set-up: dose 10 mg/kg, route intravenous. The settings on record: plasma.
Data set [8] in a line: Mean residence time in Sprague-Dawley rat at 10 mg/kg, iv. The format is ADME, organism-based. Also on record: dose 10 mg/kg, route intravenous. The settings on record: in vivo.
A short description of data set [9]: Elimination half life in Sprague-Dawley rat at 10 mg/kg, iv. On the set-up: dose 10 mg/kg, route intravenous. The format is ADME, organism-based. As to conditions: in vivo, read-out: beta t1/2 (converted).
Data set [10] is described as follows: Clearance in Sprague-Dawley rat at 10 mg/kg, iv. The format is ADME, organism-based. On the set-up: dose 10 mg/kg, route intravenous. As to conditions: in vivo.
Data set [11] can be described thus: Volume of distribution at steady state in Sprague-Dawley rat at 10 mg/kg, iv. The format is ADME, organism-based. On the set-up: dose 10 mg/kg, route intravenous. The settings on record: in vivo, read-out: Vdss.
The test system of data set [12] is Staphylococcus aureus. The experiment in a line: Antibacterial activity against clinical isolate of methicillin-sensitive Staphylococcus aureus infected in iv dosed mouse administered 1 hr after infection for 4 days. The format is functional.
Data set [13] concerns Staphylococcus aureus. The experiment in a line: Antibacterial activity against clinical isolate of methicillin-sensitive Staphylococcus aureus infected in iv dosed mouse assessed as host survival administered 1 hr after infection for 4 days. The format is functional.
Data set [14] is described as follows: Plasma concentration in Sprague-Dawley rat at 10 mg/kg, iv after 15 mins. The format is ADME, organism-based. On the set-up: dose 10 mg/kg, route intravenous.
A further data set concerns Rattus norvegicus. The experiment in a line: Tmax in Sprague-Dawley rat assessed as 14-O-(((5-hydroxymethylpyridin-3-yl)sulfanyl)acetyl)mutilin level at 10 mg/kg, iv. The format is ADME, organism-based. Also on record: dose 10 mg/kg, route intravenous. As to conditions: in vivo.

Molecules are shown by their SMILES.

One may read the solubility as the concentration that dissolves in the medium under given conditions. Read a low solubility as a poorly soluble substance. As a reminder, the Tmax is the time from dosing to the highest level. One may read the AUC(0-t) as the area under the concentration-time curve up to a stated or last time point. Low values mean low exposure, high ones high exposure. As usually defined, the MRT is a mean duration of stay, worked out from the concentration-time curve. As usually defined, the clearance is the volume of plasma or blood freed of the substance per unit of time. Broadly, the MIC is the lowest concentration found to suppress growth. Read a low MIC as greater potency. In general, ED50 refers to the midpoint of the dose-response relation. Molecule `C=C[C@]1(C)C[C@@H](OC(=O)CSc2cncc(COP(=O)([O-])[O-])c2)[C@]2(C)[C@H](C)CC[C@]3(CCC(=O)[C@H]32)[C@@H](C)[C@@H]1O.[Na+].[Na+]` displayed a solubility in [1] of 106 mg/mL. For the same molecule, the remaining at 24 h in data set [2] and in data set [4] was 98.1% each time. In addition, the remaining at 2400 h in data set [3] amounted to 98.1%. Further, the remaining at 336 h in data set [5] was 98.1%. Also, the Tmax is 4.8 min in [6] and under 5 min in the data set with Rattus norvegicus. Also, the AUC(0-t) in data set [7] stood at 1580 ng·h/mL. In addition, the MRT in [8] turned out to be 39 min. Moreover, in data set [9], the half-life is 382 min. For the same molecule, in data set [10], the clearance is 83.3 mL/min/kg. In addition, the Vd in data set [11] stood at 3.26 L/kg. In the data set on Staphylococcus aureus [12], this molecule gave an MIC of over 32 µg/mL. The ED50 with Staphylococcus aureus [13] worked out at 29.2 mg/kg. The molecule also had a concentration at […] in data set [14] of 3 ng/mL.
